{"source": "patent US20080206334A1", "about": "(priority 2005, published 2008)", "key": {"[1]": {"test": "Excipient compatibility by DSC", "format": "physicochemical", "details": "1:1 (w/w) mixtures with xanthan gum, chitosan, magnesium stearate, NaHCO3", "method": "Samples of 5-10 mg in weight were placed in hermetically sealed DSC pans. Samples were scanned at a rate of 10° C./min, and thermograms were obtained. The thermal analyzer (DSC) was calibrated prior to use by indium. The calibration procedure was repeated many times prior to DSC runs."}, "[2]": {"details": "cited from earlier work"}, "[3]": {"details": "administered orally; cited from earlier work"}}, "note": "Counter-ions that a name gives are not always drawn."}
{"smiles": "CC(C)(C)NCC(O)c1cc(O)cc(O)c1", "note": "(stereo not drawn) [Terbutaline sulfate]", "values": [{"measurement": "Excipient compatibility (DSC thermograms)", "setting": "[1]", "value": "excipients are compatible with Terbutaline sulfate"}, {"measurement": "Solubility in water", "setting": "[2]", "value": "> 20", "unit": "mg/mL"}, {"measurement": "Biological half-life", "setting": "[3]", "value": "about 3.6 hrs"}]}
